Patent US12466818B2, “Thienyl-aniline compounds for treatment of dermal disorders” (NFlection Therapeutics, Inc., priority 2018, dated 2025)

Tested on: pERK in human cutaneous neurofibroma explants
Assay: Human cutaneous neurofibroma explant pERK suppression (Western blot)
Type: cell-based
Method: Explant Protocol: Human cutaneous neurofibroma explant samples were collected in DMEM/F-12 (Thermo Fisher, Cat #11320033) supplemented with 1×B27 supplement (Thermo Fisher, Cat #17504044), 2.5 μg/ml of Amphotericin B (Thermo Fisher, Cat #15290018), and 50 units/ml of Penicillin-50 μg/ml of Streptomycin (Thermo Fisher, Cat #15070063) and incubated in the same medium for subsequent treatment. The specimen was cut into small cubes containing both the epidermis and dermis. The tissues were partially submerged in the medium in 384-well plate with the epidermis exposed to the air.
The tissues were fully submerged in the medium in 48-well plate and 5 μl of compounds dissolved in DMSO were added to 200 μl of the medium in each well. After 4 h incubation at 37° C. and 5% CO2, the tissues were harvested and half of the specimen was flash frozen in liquid nitrogen for Western Blot analysis. The other half of the specimen was fixed for 24 hours in 10% formalin and then transferred to 70% ethanol for […].
Skin samples were thawed on ice and weighed. 10 volume (10 μl for each mg of tissue) of lysis buffer (RIPA buffer+0.5 mM EDTA+1×Halt protease and phosphatase inhibitor cocktail) was then added to each sample. […]
Western Blot analysis: The lysate was thawed on ice and protein concentration was determined by the BCA protein assay kit using bovine serum albumin (BSA) as standards. […]

Structure (SMILES): O=C1CCCc2c1sc(Nc1ccc(I)cc1F)c2C(=O)NOCCO [Compound 1.029, 2-((2-Fluoro-4-iodophenyl)amino)-N-(2-hydroxyethoxy)-7-oxo-4,5,6,7-tetrahydrobenzo[b]thiophene-3-carboxamide]
- suppression of pERK in human cutaneous neurofibroma (cNF) explants (FIG. 5) (concentration of 500 nM): suppression of pERK
- suppression of pERK in human cutaneous neurofibroma (cNF) explants (FIG. 4) (treatment for 4 hours at 5 nM, 50 nM, and 500 nM): suppression of pERK
